Assay results from patent US20240252488A1 (KOREA RESEARCH INSTITUTE OF CHEMICAL TECHNOLOGY, priority 2020, published 2024).

Assays:
FADD−/− Jurkat cells = test: Necroptosis inhibition assay, TNF-α-induced necroptosis (CellTiter-Glo 2.0); type: cell-based, human; conditions: TNF-α 15 ng/mL; for Necroptosis inhibition assay (Rescue %) 1 μM: compound 1 μM; for Necroptosis inhibition assay (Rescue %) 10 μM: compound 10 μM
Method in brief: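 Tested at three fixed concentrations (0.1, 1, 10 μM final) with a 30-minute room-temperature preincubation ahead of 15 ng/mL TNF-α challenge lasting 20 to 24 hours. Inhibition rate and cytotoxicity derive from ATP luminescence.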

MLKL [1] = molecular target: T1, MLKL (Homo sapiens, UniProt Q8NB16); test: Measurement of binding affinity with MLKL receptor (competitive binding assay, Kd); set-up: made in house; host or cells: HEK 293 cell line (T7 phage in E. coli BL21-derived host is also described)
T1 sequence (Q8NB16 1-471): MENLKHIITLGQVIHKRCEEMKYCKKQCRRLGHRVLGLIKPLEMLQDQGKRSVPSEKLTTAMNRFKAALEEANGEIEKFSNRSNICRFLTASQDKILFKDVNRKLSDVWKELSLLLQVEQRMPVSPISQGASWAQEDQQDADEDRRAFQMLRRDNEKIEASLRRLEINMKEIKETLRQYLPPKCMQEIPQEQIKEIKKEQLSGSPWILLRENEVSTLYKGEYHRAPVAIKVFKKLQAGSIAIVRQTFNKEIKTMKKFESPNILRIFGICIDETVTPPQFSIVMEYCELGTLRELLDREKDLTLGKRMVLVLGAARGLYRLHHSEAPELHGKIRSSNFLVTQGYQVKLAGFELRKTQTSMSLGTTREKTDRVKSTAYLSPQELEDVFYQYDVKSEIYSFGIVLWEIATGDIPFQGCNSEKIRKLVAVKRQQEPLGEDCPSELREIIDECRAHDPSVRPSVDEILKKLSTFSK
Method in brief: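 qPCR of MLKL eluted from liganded beads served as the read-out, from which Kd was derived. The protein was made in HEK 293 cells with a DNA tag, and test compounds competed with the bead-bound ligand at 0.9% final DMSO.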

MLKL [2] = molecular target: T1, MLKL; test: MLKL degradation assay in HepG2 cell line (western blot); type: cell-based; set-up: endogenous in cells; host or cells: HepG2 or HaCaT; conditions: cell line not given; for Degradation assay (Degradation %) 1 μM: compound 1 μM; for Degradation assay (Degradation %) 10 μM: compound 10 μM
Method in brief: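 Degradation is judged from MLKL band intensity on immunoblots of HepG2 lysates taken after 20-24 hours of compound at final 1 or 10 μM.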

Compound	Kd (MLKL [1]) [nM]	Degradation assay (Degradation %) 1 μM (MLKL [2]) [%]	Degradation assay (Degradation %) 10 μM (MLKL [2]) [%]	Necroptosis inhibition assay (Rescue %) 1 μM (FADD−/− Jurkat cells) [%]	Necroptosis inhibition assay (Rescue %) 10 μM (FADD−/− Jurkat cells) [%]	Necroptosis inhibition assay (Rescue %) 1 μM (FADD−/− Jurkat cells; FADD−/− Jurkat cells) [%]	Necroptosis inhibition assay (Rescue %) 10 μM (FADD−/− Jurkat cells; FADD−/− Jurkat cells) [%]
Nc1ncc(-c2cnn(C3CCN(C(=O)COCCOCCNc4ccc5c(c4)C(=O)N(C4CCC(=O)NC4=O)C5=O)CC3)c2)nc1C(=O)O[C@@H](C(=O)Nc1ccc(F)cc1)c1ccccc1 (stereo partly drawn) [TDH-105, (R)-2-((4-fluorophenyl)amino)-2-oxo-1-phenylethyl 3-amino-6-(1-(1-(2-(2-(2-((2-(2,6-dioxopiperidin-3-yl)-1,3-dioxoisoindolin-5-yl)amino)ethoxy)ethoxy)acetyl)piperidin-4-yl)-1H-pyrazol-4-yl)pyrazine-2-carboxylate]	6.1	43.02	40.8	27.07	15.46		
Nc1ncc(-c2cnn(C3CCN(CCC4CCN(C(=O)COc5ccc6nnn(C7CCC(=O)NC7=O)c(=O)c6c5)CC4)CC3)c2)nc1C(=O)OC(C(=O)Nc1ccc(F)cc1)c1ccccc1 (centres unmarked) [TDH-293, 2-((4-fluorophenyl)amino)-2-oxo-1-phenylethyl 3-amino-6-(1-(1-(2-(1-(2-((3-(2,6-dioxopiperidin-3-yl)-4-oxo-3,4-dihydrobenzo[d][1,2,3]triazin-6-yl)oxy)acetyl)piperidin-4-yl)ethyl)piperidin-4-yl)-1H-pyrazol-4-yl)pyrazine-2-carboxylate]	2.3	76.09	71.04	108.66	87.1		
Nc1ncc(-c2cnn(C3CCN(C[C@H]4CC[C@H](CNc5cccc6c5C(=O)N(C5CCC(=O)NC5=O)C6=O)CC4)CC3)c2)nc1C(=O)O[C@@H](C(=O)Nc1ccc(F)cc1)c1ccccc1 (stereo partly drawn) [TDH-351, (R)-2-((4-fluorophenyl)amino)-2-oxo-1-phenylethyl 3-amino-6-(1-(1-(((1r,4r)-4-(((2-(2,6-dioxopiperidin-3-yl)-1,3-dioxoisoindolin-4-yl)amino)methyl)cyclohexyl)methyl)piperidin-4-yl)-1H-pyrazol-4-yl)pyrazine-2-carboxylate]	6.1	62.4	24.61	0.74	3.39		
Nc1ncc(-c2cnn(C3CCN(CCOCCNC(=O)C4CN(c5cccc6c5C(=O)N(C5CCC(=O)NC5=O)C6=O)C4)CC3)c2)nc1C(=O)O[C@@H](C(=O)Nc1ccc(F)cc1)c1ccccc1 (stereo partly drawn) [TDH-126, (R)-2-((4-fluorophenyl)amino)-2-oxo-1-phenylethyl 3-amino-6-(1-(1-(2-(2-(1-(2-(2,6-dioxopiperidin-3-yl)-1,3-dioxoisoindolin-4-yl)azetidine-3-carboxamido)ethoxy)ethyl)piperidin-4-yl)-1H-pyrazol-4-yl)pyrazine-2-carboxylate]	9.2	31.29	81.59	19.35	58.35		
Nc1ncc(-c2cn(C3CCN(CC4CCN(C(=O)CNc5cccc6c5C(=O)N(C5CCC(=O)NC5=O)C6=O)CC4)CC3)nn2)nc1C(=O)OC(C(=O)Nc1ccc(F)cc1)c1ccccc1 (centres unmarked) [TDH-224, 2-((4-fluorophenyl)amino)-2-oxo-1-phenylethyl 3-amino-6-(1-(1-((1-((2-(2,6-dioxopiperidin-3-yl)-1,3-dioxoisoindolin-4-yl)glycyl)piperidin-4-yl)methyl)piperidin-4-yl)-1H-1,2,3-triazol-4-yl)pyrazine-2-carboxylate]	19	49.26	56.93	63.63	67.66		
Nc1ncc(-c2cnn(C3CCN(CCC4CCN(c5cccc6c5C(=O)N(C5CCC(=O)NC5=O)C6=O)CC4)CC3)c2)nc1C(=O)O[C@@H](C(=O)Nc1ccc(F)cc1)c1ccccc1 (stereo partly drawn) [TDH-202, (R)-2-((4-fluorophenyl)amino)-2-oxo-1-phenylethyl 3-amino-6-(1-(1-(2-(1-(2-(2,6-dioxopiperidin-3-yl)-1,3-dioxoisoindolin-4-yl)piperidin-4-yl)ethyl)piperidin-4-yl)-1H-pyrazol-4-yl)pyrazine-2-carboxylate]	2.1	65.39	53.78	60.16	29.13		

Now from value to compound, other results behind:

Kd (MLKL [1]) [nM]	Degradation assay (Degradation %) 1 μM (MLKL [2]) [%]	Degradation assay (Degradation %) 10 μM (MLKL [2]) [%]	Compound	Necroptosis inhibition assay (Rescue %) 1 μM (FADD−/− Jurkat cells) [%]	Necroptosis inhibition assay (Rescue %) 10 μM (FADD−/− Jurkat cells) [%]	Necroptosis inhibition assay (Rescue %) 1 μM (FADD−/− Jurkat cells; FADD−/− Jurkat cells) [%]	Necroptosis inhibition assay (Rescue %) 10 μM (FADD−/− Jurkat cells; FADD−/− Jurkat cells) [%]
1.1	73.33	94	Nc1ncc(-c2cnn(C3CCN(CCCN4CCN(C(=O)CC5CCN(c6ccc7c(c6)C(=O)N(C6CCC(=O)NC6=O)C7=O)CC5)CC4)CC3)c2)nc1C(=O)O[C@@H](C(=O)Nc1ccc(F)cc1)c1ccccc1 (stereo partly drawn) [TDH-369, (R)-2-((4-fluorophenyl)amino)-2-oxo-1-phenylethyl 3-amino-6-(1-(1-(3-(4-(2-(1-(2-(2,6-dioxopiperidin-3-yl)-1,3-dioxoisoindolin-5-yl)piperidin-4-yl)acetyl)piperazin-1-yl)propyl)piperidin-4-yl)-1H-pyrazol-4-yl)pyrazine-2-carboxylate]	48.04	22.49		
2.3	93.86	86.43	Nc1ncc(-c2cnn(C3CCN(C(=O)C4CCN(C(=O)CC5CCN(c6ccc7c(c6)C(=O)N(C6CCC(=O)NC6=O)C7=O)CC5)CC4)CC3)c2)nc1C(=O)O[C@@H](C(=O)Nc1ccc(F)cc1)c1ccccc1 (stereo partly drawn) [TDH-375, (R)-2-((4-fluorophenyl)amino)-2-oxo-1-phenylethyl 3-amino-6-(1-(1-(1-(2-(1-(2-(2,6-dioxopiperidin-3-yl)-1,3-dioxoisoindolin-5-yl)piperidin-4-yl)acetyl)piperidine-4-carbonyl)piperidin-4-yl)-1H-pyrazol-4-yl)pyrazine-2-carboxylate]	30.67	20.44		
0.57	77.02	44.73	Nc1ncc(-c2cnn(C3CCN(C(=O)C4CCN(C(=O)CNc5ccc6nnn(C7CCC(=O)NC7=O)c(=O)c6c5)CC4)CC3)c2)nc1C(=O)O[C@@H](C(=O)Nc1ccc(F)cc1)c1ccccc1 (stereo partly drawn) [TDH-408, (R)-2-((4-fluorophenyl)amino)-2-oxo-1-phenylethyl 3-amino-6-(1-(1-(1-((3-(2,6-dioxopiperidin-3-yl)-4-oxo-3,4-dihydrobenzo[d][1,2,3]triazin-6-yl)glycyl)piperidine-4-carbonyl)piperidin-4-yl)-1H-pyrazol-4-yl)pyrazine-2-carboxylate]			26.68	19.89
0.68	70.67	89.04	Nc1ncc(-c2cnn(C3CCN(CC4CCN(CC5CCN(C(=O)c6ccc(C(=O)NC7CCC(=O)NC7=O)cc6)CC5)CC4)CC3)c2)nc1C(=O)O[C@@H](C(=O)Nc1ccc(F)cc1)c1ccccc1 (stereo partly drawn) [TDH-539, (R)-2-((4-fluorophenyl)amino)-2-oxo-1-phenylethyl 3-amino-6-(1-(1-((1-((1-(4-((2,6-dioxopiperidin-3-yl)carbamoyl)benzoyl)piperidin-4-yl)methyl)piperidin-4-yl)methyl)piperidin-4-yl)-1H-pyrazol-4-yl)pyrazine-2-carboxylate]			46.99	30.33
